Data taken from ChEMBL document CHEMBL1130470, “Novel inhibitors of the prenylated protein methyltransferase reveal distinctive structural requirements” (Bioorg Med Chem Lett, 1997).

Assay: In vitro inhibitory activity against prenylated protein methyltransferase (PPMTase), activity expressed as Ki(inhibitory constant)
Design: species or system Rattus norvegicus

First: CC(C)=CCC/C(C)=C/CC/C(C)=C/CC/C(C)=C/CSc1ccccc1C(=O)O
Second: CC(C)=CCC/C(C)=C/CC/C(C)=C/CSc1ccccc1C(=O)O [SALIRASIB]
The Ki of the first is higher: > 50 µM for the first, 2.8 µM for the second. The second binds more tightly here.

Going from `CC(C)=CCC/C(C)=C/CC/C(C)=C/CSc1ccc(Cl)cc1C(=O)O` to `CC(C)=CCC/C(C)=C/CC/C(C)=C/CSc1cc(Cl)ccc1C(=O)O`, the Ki rises from 8.5 µM to 28 µM (3.3-fold).

Compared with `CC(C)=CCC/C(C)=C/CC/C(C)=C/CSc1ccc(F)cc1C(=O)O`, `CC(C)=CCC/C(C)=C/CC/C(C)=C/CSc1cc(F)ccc1C(=O)O` is 3.7-fold higher in Ki: 6.3 µM for the first, 23 µM for the second. The first binds more tightly here.

`CC(C)=CCC/C(C)=C/CSc1ccccc1C(=O)O` and `COC(=O)c1ccccc1SC/C=C(\C)CC/C=C(\C)CCC=C(C)C` cannot be ordered by Ki: > 50 µM for the first, > 50 µM for the second.

With `CC(C)=CCC/C(C)=C/CC/C(C)=C/CSc1c(Cl)cccc1C(=O)O` the Ki was > 50 µM.
